Where “and” joins values, the source holds several entries; their conditions need not be identical. Identical values can stand only once.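 Cells were grown in 96-well plates and exposed to each compound for 48 hours at five concentrations; endpoints were interpolated linearly between bracketing concentrations, or set to the highest concentration if not reached. GI50 marks 50% less growth. TGI: concentration producing complete growth inhibition.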

Among the data in PubChem BioAssay (NCI) are TGI and GI50 values, retold here.

One experiment relates to NCI-H226 lung. Put plainly: inhibition of tumour cell growth, NCI panel, 48 h.
In the case of `CCC1=CCN(c2cc(C)ccn2)OC1c1ccc(OC)cc1` (stereo not given), the TGI is above 100 µM.

Turning to `CC(=O)Oc1c(C)c(-c2ccccc2)c(C)c(-c2ccccc2)c1C(=S)c1ccccc1`, the TGI was above 100 µM.

Turning to `CC1(O)C(C)(O)C2(C)O[Te]3(OC12C)OC1(C)C(C)(O)C(C)(O)C1(C)O3` (stereo not given), the TGI worked out at 89.2 µM.

`COc1cc(NCC(C#N)C#N)ccc1N=Nc1ccc(Cl)cc1` registered a TGI above 100 µM.

`CC(=O)c1ccc(NC(=O)/C(CC(=O)c2sc(-c3cccnc3)nc2C)=N/NC(N)=O)cc1` came in with a TGI of 75.6 µM.

For the molecule `Cc1ccc(S(=O)(=O)OC2CC=CC2)cc1`, the TGI is above 100 µM.

Consider `C=CC[P@]1(=O)O[C@H](c2ccccc2)[C@H](C)N1C`, for which the TGI is above 100 µM.

As to `NCCCNCCS`, the TGI is above 100 µM.

For the molecule `OCC12C=CC(C1)c1ccccc12` (stereo not given), the TGI is above 100 µM.

On to `CCOC1C(Br)Cn2c(=O)c3cc4ccccc4cc3c(=O)n2C1C` (stereo not given), for which the TGI is above 100 µM.

For the molecule `COc1ccc(NC(=O)CC/C(CC(=O)c2ccco2)=N/NC(=O)C(N)=O)cc1`, the TGI is above 100 µM.

On to `O=C1C=CC(=O)C2C1C1(Cl)C(Cl)=C(Cl)C2(Cl)C1(Cl)Cl` (stereo not given), for which the GI50 is 10.8 µM and the TGI turned out to be 49.1 µM.

With `C=CC(=O)N1CCC(Oc2cc3c(Nc4ccc(Cl)c(Cl)c4F)ncnc3cc2OC)CC1`, the GI50 is 1.84 µM and 0.944 µM; the TGI was 16.2 µM and > 10 µM.

With `NC(CCCC(N)P(=O)(O)O)P(=O)(O)O` (stereo not given), the TGI is above 100 µM.

The molecule `O=C(O)CCCc1ccc2ccc3ccccc3c2c1` returned a TGI above 100 µM.

Regarding `CC(=O)OC1OC([C@H]2c3cccc(O)c3C(=O)c3c(O)cc(C)cc32)C(O)C(O)C1O` (stereo not given in full), the GI50 was below 0.01 µM and the TGI is 0.0455 µM.

In the case of `Cc1cc(Cl)ccc1OCC(=O)Nc1nc2c(Cl)cccc2s1`, the GI50 was 53.3 µM and the TGI is above 100 µM.

As for `CNC(=O)OCc1c(COC(=O)NC)c(-c2ccc(-c3ccccc3)cc2)n(C)c1C`, the TGI turned out to be 32.5 µM.

For the molecule `COc1cccc2c1C(=N)c1c(O)c3c(c(O)c1C2=O)C[C@@](O)(C(C)=O)C[C@@H]3O[C@H]1C[C@H](N)[C@H](O)[C@H](C)O1`, the GI50 is 0.167 µM and the TGI was 1.4 µM.

As for `Cc1cn(-c2cc(NC(=O)c3cccc(C#Cc4cccc5[nH]nc(N)c45)c3)cc(C(F)(F)F)c2)cn1`, the GI50 was 0.771 µM and the TGI was 61.2 µM.

For `N/N=C\c1c2ccccc2c(=O)n2c1oc1ccccc12`, the GI50 was 14.6 µM and the TGI stood at 33.9 µM.

`CC(=O)C1C(c2ccccc2)C2(C)OC(=O)C(C#N)C12C` (stereo not given) came in with a TGI above 100 µM.

`C[C@]12CC=CC(=O)[C@@]1(C)CCC(=O)C2`: the TGI is above 100 µM.

`CCCC1(CC(=O)O)OCCc2c1[nH]c1ccccc21` (stereo not given) registered a TGI above 100 µM.

Regarding `CN(C)Cc1cc(C(F)(F)F)ccc1C(O)(c1ccccc1)c1ccccc1`, the TGI stood at 31.1 µM.

With `O=C(NC(=O)c1c(F)cccc1F)Nc1cccc(Oc2ncc(Cl)cn2)c1`, the TGI is above 100 µM.

In the case of `CSC(SC)(C(=O)O)c1cc(-c2c(Cl)cccc2Cl)no1`, the TGI was above 100 µM.

A further experiment relates to HOP-92 NSCLC. Nature of the experiment: inhibition of tumour cell growth, NCI panel, 48 h.
As for `CC(=O)Oc1c(C)c(-c2ccccc2)c(C)c(-c2ccccc2)c1C(=S)c1ccccc1`, the TGI was above 100 µM.

With `COc1ccc(C=O)cc1O[Si](C)(C)C(C)(C)C`, the TGI was above 100 µM.

Turning to `CC1(O)C(C)(O)C2(C)O[Te]3(OC12C)OC1(C)C(C)(O)C(C)(O)C1(C)O3` (stereo not given), the TGI worked out at 49.2 µM.

Turning to `Cc1ccc(S(=O)(=O)OC2CC=CC2)cc1`, the TGI is above 100 µM.

With `NCCCNCCS`, the TGI is above 100 µM.

`OCC12C=CC(C1)c1ccccc12` (stereo not given) yielded a TGI above 100 µM.

In the case of `CCOC1C(Br)Cn2c(=O)c3cc4ccccc4cc3c(=O)n2C1C` (stereo not given), the TGI was above 100 µM.

With `O=C1C=CC(=O)C2C1C1(Cl)C(Cl)=C(Cl)C2(Cl)C1(Cl)Cl` (stereo not given), the GI50 was 1.69 µM and the TGI came to 6.88 µM.

With `C=CC(=O)N1CCC(Oc2cc3c(Nc4ccc(Cl)c(Cl)c4F)ncnc3cc2OC)CC1`, the GI50 was 0.944 µM and 0.338 µM; the TGI was 5.59 µM and 3.07 µM.

`NC(CCCC(N)P(=O)(O)O)P(=O)(O)O` (stereo not given) had a TGI above 100 µM.

In turn, `O=C(O)CCCc1ccc2ccc3ccccc3c2c1` registered a TGI above 100 µM.

On to `CC(=O)OC1OC([C@H]2c3cccc(O)c3C(=O)c3c(O)cc(C)cc32)C(O)C(O)C1O` (stereo not given in full), for which the GI50 was 0.0623 µM and the TGI was found to be 0.194 µM.

Take `Cc1cc(Cl)ccc1OCC(=O)Nc1nc2c(Cl)cccc2s1`: the GI50 is 21 µM and the TGI is 97.5 µM.

For the molecule `CNC(=O)OCc1c(COC(=O)NC)c(-c2ccc(-c3ccccc3)cc2)n(C)c1C`, the TGI was found to be 11.9 µM.

As for `COc1cccc2c1C(=N)c1c(O)c3c(c(O)c1C2=O)C[C@@](O)(C(C)=O)C[C@@H]3O[C@H]1C[C@H](N)[C@H](O)[C@H](C)O1`, the TGI was determined as 7.35 µM.

Turning to `Cc1cn(-c2cc(NC(=O)c3cccc(C#Cc4cccc5[nH]nc(N)c45)c3)cc(C(F)(F)F)c2)cn1`, the GI50 was 2.67 µM and the TGI turned out to be 9.75 µM.

As to `N/N=C\c1c2ccccc2c(=O)n2c1oc1ccccc12`, the GI50 is 18.9 µM and the TGI was determined as 38.7 µM.

`C[C@]12CC=CC(=O)[C@@]1(C)CCC(=O)C2` registered a TGI above 100 µM.

For the molecule `CC(=O)Oc1cc2c(cc1OC(C)=O)C1(C)CCC2(C)c2cc(OC(C)=O)c(OC(C)=O)cc21`, the TGI came out at 38.2 µM.

`CCCC1(CC(=O)O)OCCc2c1[nH]c1ccccc21` (stereo not given) showed a TGI above 100 µM.

`CN(C)Cc1cc(C(F)(F)F)ccc1C(O)(c1ccccc1)c1ccccc1` yielded a TGI of 27 µM.

Consider `O=C(NC(=O)c1c(F)cccc1F)Nc1cccc(Oc2ncc(Cl)cn2)c1`, for which the TGI is 70.9 µM.

`CSC(SC)(C(=O)O)c1cc(-c2c(Cl)cccc2Cl)no1` yielded a TGI above 100 µM.

Another experiment relates to DLD-1 colon. Put plainly: inhibition of tumour cell growth, NCI panel, 48 h.
The molecule `CCC1=CCN(c2cc(C)ccn2)OC1c1ccc(OC)cc1` (stereo not given) showed a TGI above 100 µM.

The molecule `CC(=O)Oc1c(C)c(-c2ccccc2)c(C)c(-c2ccccc2)c1C(=S)c1ccccc1` displayed a TGI above 100 µM.
